Experimental data: ChEMBL document CHEMBL5380875, “Discovery of a Potent and Oral Available Complex I OXPHOS Inhibitor That Abrogates Tumor Growth and Circumvents MEKi Resistance” (J Med Chem, 2023)
Calls of active or inactive are those of the source. The calls are words filed in the database; no cut-off is given here.

Legend:
[1] = system: NCI-H460; experiment: Induction of apoptosis in human NCI-H460 cells with high-OXPHOS harboring KRAS Q61H mutant assessed as early apoptotic cells at 20 nM incubated for 72 hrs by Annexin V-FITC/propidium iodide staining based flow cytometry analysis (reference value: 1.95%); assay type: functional
[2] = Half life in ICR mouse at 10 mg/kg, po measured for 24 hrs by LC-MS/MS analysis; assay type: ADME, organism-based; conditions: in vivo
[3] = system: NCI-H460; experiment: Inhibition of mitochondrial complex IV in human NCI-H460 cells at 1 uM incubated for 12 hrs by seahorse XF96 metabolic flux analyzer relative to control; assay type: cell-based
[4] = system: NCI-H460; experiment: Inhibition of colony formation in human NCI-H460 cells with high-OXPHOS harboring KRAS Q61H mutant incubated for 10 to 14 days in presence of trametinib by crystal violet staining based analysis; assay type: functional, cell-based; conditions: time 10-14 day
[5] = Half life in ICR mouse at 1 mg/kg, iv measured for 24 hrs by LC-MS/MS analysis; assay type: ADME, organism-based; conditions: in vivo
[6] = system: NCI-H441; experiment: Inhibition of mitochondrial respiration in human NCI-H441 cells with high-OXPHOS assessed as reduction in basal oxygen consumption rate incubated for 12 hrs by seahorse XF96 flux analyzer; assay type: functional, cell-based; conditions: dose 50-200 nM
[7] = Toxicity in mouse xenografted with human NCI-H460 cells with high-OXPHOS assessed as pathological changes in spleen at 30 mg/kg, po bid administered for 18 days by H and E staining based analysis; assay type: organism-based; conditions: in vivo, 432 h, time 18 day
[8] = Tmax in ICR mouse at 10 mg/kg, po measured for 24 hrs by LC-MS/MS analysis; assay type: ADME, organism-based; conditions: in vivo
[9] = Toxicity in mouse xenografted with human NCI-H460 cells with high-OXPHOS assessed as reduction in body weight at 30 mg/kg, po bid administered for 18 days in presence of trametinib; assay type: organism-based; conditions: in vivo, 432 h, time 18 day
[10] = system: NCI-H460; experiment: Antiproliferative activity against human NCI-H460 cells with high-OXPHOS assessed as reduction in cell viability incubated for 5 days by CellTiter 96 cell proliferation assay; assay type: functional, cell-based; conditions: NCI-H460, 120 h
[11] = system: NCI-H460; experiment: Potentiation of trametinib-induced cytotoxicity against human NCI-H460 cells with high-OXPHOS harboring KRAS Q61H mutant assessed as reduction in cell viability at 10 to 20 uM incubated for 72 hrs by CellTiter 96 cell proliferation assay; assay type: functional, cell-based; conditions: dose 10-20 µM
[12] = MRT (0 to 24 hrs) in ICR mouse at 1 mg/kg, iv measured for 24 hrs by LC-MS/MS analysis; assay type: ADME, organism-based; conditions: in vivo
[13] = Oral bioavailability in ICR mouse at 10 mg/kg measured for 24 hrs by LC-MS/MS analysis; assay type: ADME, organism-based; conditions: in vivo
[14] = system: NCI-H460; experiment: Induction of apoptosis in human NCI-H460 cells with high-OXPHOS harboring KRAS Q61H mutant assessed as late apoptotic cells at 20 nM incubated for 72 hrs by Annexin V-FITC/propidium iodide staining based flow cytometry analysis (reference value: 5.68%); assay type: functional
[15] = system: NCI-H441; experiment: Induction of apoptosis in human NCI-H441 cells with high-OXPHOS assessed as late apoptotic cells at 30 nM incubated for 48 hrs by Annexin V-FITC/propidium iodide staining based flow cytometry analysis (reference value: 9.27%); assay type: functional
[16] = system: A549; experiment: Induction of apoptosis in human Trametinib-resistant A549 cells with high-OXPHOS harboring KRAS G12S mutant assessed as early apoptotic cells at 20 nM incubated for 72 hrs by Annexin V-FITC/propidium iodide staining based flow cytometry analysis (reference value: 4.31%); assay type: functional
[17] = Toxicity in mouse xenografted with human NCI-H460 cells with high-OXPHOS assessed as pathological changes in kidney at 30 mg/kg, po bid administered for 18 days by H and E staining based analysis; assay type: organism-based; conditions: in vivo, 432 h, time 18 day
[18] = system: NCI-H460; experiment: Inhibition of mitochondrial respiration in human NCI-H460 cells with high-OXPHOS assessed as reduction in basal oxygen consumption rate incubated for 12 hrs by seahorse XF96 flux analyzer; assay type: functional, cell-based; conditions: dose 50-200 nM
[19] = Toxicity in mouse xenografted with human NCI-H460 cells with high-OXPHOS assessed as pathological changes in lung at 30 mg/kg, po bid administered for 18 days by H and E staining based analysis; assay type: organism-based; conditions: in vivo, 432 h, time 18 day
[20] = system: NCI-H441; experiment: Induction of apoptosis in human NCI-H441 cells with high-OXPHOS assessed as early apoptotic cells at 30 nM incubated for 48 hrs by Annexin V-FITC/propidium iodide staining based flow cytometry analysis (reference value: 1.67%); assay type: functional
[21] = Clearance in ICR mouse at 1 mg/kg, iv measured for 24 hrs by LC-MS/MS analysis; assay type: ADME, organism-based; conditions: in vivo
[22] = system: NCI-H441; experiment: Inhibition of mitochondrial respiration in human NCI-H441 cells with high-OXPHOS assessed as reduction in spare oxygen consumption rate capacity incubated for 12 hrs by seahorse XF96 flux analyzer; assay type: functional, cell-based; conditions: dose 50-200 nM
[23] = system: A549; experiment: Inhibition of mitochondrial respiration in human Trametinib-resistant A549 cell assessed as reduction in spare oxygen consumption rate capacity at 50 to 200 nM incubated for 12 hrs by seahorse XF96 flux analyzer; assay type: functional, cell-based; conditions: dose 50-200 nM
[24] = system: NCI-H460; experiment: Inhibition of mitochondrial complex I NADH-ubiquinone oxidoreductase in human NCI-H460 cells assessed as reduction in NAD+/NADH ratio at 1 uM incubated for 12 hrs by WST-8 method relative to control; assay type: cell-based
[25] = system: A549; experiment: Inhibition of mitochondrial respiration in human Trametinib-resistant A549 cell assessed as reduction in maximal oxygen consumption rate at 50 to 200 nM incubated for 12 hrs by seahorse XF96 flux analyzer; assay type: functional, cell-based; conditions: dose 50-200 nM
[26] = system: A549; experiment: Antiproliferative activity against human Trametinib-resistant A549 cells with high-OXPHOS assessed as reduction in cell viability incubated for 5 days by CellTiter 96 cell proliferation assay; assay type: functional, cell-based; conditions: A549, 120 h
[27] = system: NCI-H460; experiment: Potentiation of trametinib-induced antitumor activity against human NCI-H460 cells with high-OXPHOS xenografted in mouse assessed as reduction in tumor weight at 30 mg/kg, po bid administered for 18 days and measured every 3 days by electronic caliper analysis; assay type: functional, organism-based; conditions: time 18.0 day
[28] = system: A549; experiment: Induction of apoptosis in human Trametinib-resistant A549 cells with high-OXPHOS harboring KRAS G12S mutant assessed as late apoptotic cells at 20 nM incubated for 72 hrs in presence of trametinib by Annexin V-FITC/propidium iodide staining based flow cytometry analysis (reference value: 4.31%); assay type: functional
[29] = biological target: Cytochrome P450 2C9 (Homo sapiens, UniProt P11712); experiment: Inhibition of CYP2C9 in human liver microsomes; assay type: ADME, Microsome
[30] = system: NCI-H441; experiment: Inhibition of colony formation in human NCI-H441 cells with high-OXPHOS incubated for 7 days by crystal violet staining based analysis; assay type: functional, cell-based; conditions: dose 250-1000 nM, time 7.0 day
[31] = system: NCI-H460; experiment: Antitumor activity against human NCI-H460 cells with high-OXPHOS xenografted in mouse assessed as reduction in Ki67 expression at 30 mg/kg, po bid administered for 18 days in presence of trametinib by immunohistochemical analysis; assay type: functional, organism-based; conditions: time 18.0 day
[32] = system: NCI-H460; experiment: Potentiation of trametinib-induced antitumor activity against human NCI-H460 cells with high-OXPHOS xenografted in mouse assessed as reduction in tumor volume at 30 mg/kg, po bid administered for 18 days and measured every 3 days by electronic caliper analysis; assay type: functional, organism-based; conditions: time 18.0 day
[33] = Tmax in ICR mouse at 1 mg/kg, iv measured for 24 hrs by LC-MS/MS analysis; assay type: ADME, organism-based; conditions: in vivo

Cytochrome P450 2C9, sequence (P11712 whole entry): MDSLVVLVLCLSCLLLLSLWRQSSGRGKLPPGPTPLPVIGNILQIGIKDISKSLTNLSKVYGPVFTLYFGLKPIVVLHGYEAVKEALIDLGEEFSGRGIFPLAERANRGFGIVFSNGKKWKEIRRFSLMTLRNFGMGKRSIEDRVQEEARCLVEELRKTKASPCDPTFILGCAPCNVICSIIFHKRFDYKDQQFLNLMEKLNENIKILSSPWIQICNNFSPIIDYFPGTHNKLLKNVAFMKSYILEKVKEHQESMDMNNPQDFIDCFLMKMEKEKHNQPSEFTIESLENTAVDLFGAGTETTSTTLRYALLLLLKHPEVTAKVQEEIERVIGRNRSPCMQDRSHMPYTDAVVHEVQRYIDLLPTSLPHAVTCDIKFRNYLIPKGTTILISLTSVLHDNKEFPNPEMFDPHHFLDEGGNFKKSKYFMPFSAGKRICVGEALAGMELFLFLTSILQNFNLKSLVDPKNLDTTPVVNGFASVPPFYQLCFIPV

Cc1c(C(=O)N2CCN(Cc3ccc(OCC(F)(F)F)cc3)CC2)nnn1Cc1ccc(C(=O)Nc2ccc(C(F)(F)F)cc2)nc1
Activity [1]: 2.87% | half-life [2]: 150 min | inhibition [3]: 10.4% | inhibition [4]: Active | half-life [5]: 138 min | inhibition [6]: Dose-Dependent Effect | Activity [7]: Non-Toxic | Tmax [8]: 1 h | Activity [9]: Non-Toxic | IC50 [10]: 5 nM | Activity [11]: Active | MRT last at 24 h [12]: 1.5 h | bioavailability [13]: 64.3% | Activity [14]: 16.2% | Activity [15]: 30.9% | Activity [16]: 8.57% | Activity [17]: Non-Toxic | inhibition [18]: Dose-Dependent Effect | Activity [19]: Non-Toxic | Activity [20]: 7.88% | clearance [21]: 46.6 mL/min/kg | inhibition [22]: Dose-Dependent Effect | inhibition [23]: Active | inhibition [24]: 87.5% | inhibition [25]: Active | IC50 [26]: 15.1 nM | Activity [27]: Active | Activity [28]: 43.4% | IC50 [29]: 14.6 µM | inhibition [30]: Dose-Dependent Effect | Activity [31]: Active | Activity [32]: Active | Tmax [33]: 4.8 min
